{
  "source": "patent US20250368629A1",
  "about": "“FLAVONOID COMPOUNDS AND METHODS AND MATERIALS FOR USING FLAVONOID COMPOUNDS TO TREAT FIBROTIC CONDITIONS” (Mayo Foundation for Medical Education and Research, priority 2022, published 2025)",
  "key": {"[1]": {"test": "Microsomal stability, human liver derived microsomes", "type": "in vitro ADME", "procedure": "The microsomal stability of F-4N was also assessed (FIG. 28). Compounds were incubated with human or mouse liver derived microsomes. The percent of F-4N recovered was analyzed by LC-MS. Verapamil was used as a control for a rapidly degraded compound. Analysis was performed by Cyprotex (Framingham, MA)."}, "~400 kinases": {"tested_on": "~400 kinases", "test": "Kinome screen (Reaction Biology wild-type kinase panel, ATP competition assay)", "type": "biochemical", "settings": "1 μM, Z-scores", "procedure": "FIG. 4A. F-4N was sent to Reaction Biology to be tested against their entire wild-type kinase panel. 1 μM F-4N was tested in an ATP competition assay against 420+ kinases. Z-scores were calculated to identify true hits over noise.\nKinome screening was used to test F-4N (1 μM) against ˜400 kinases."}, "in vitro": {"test": "in vitro", "type": "in vitro ADME", "settings": "rat", "procedure": "Plasma protein binding assays were also performed (Table 2). Compounds were incubated with rat plasma for 4 hours. The percent of F-4N recovered was analyzed by LC-MS. Warfarin was used as a control for a compound with high plasma protein binding. Analysis performed by Cyprotex (Framingham, MA)."}, "[2]": {"tested_on": "low passage proliferating fibroblasts", "test": "Apoptosis of low passage proliferating lung fibroblasts (cleaved caspase-3, DAPI)", "type": "cell-based, human", "settings": "low passage proliferating fibroblasts from the same donor, 96 hours, 6-point dose-response, N=3", "procedure": "Human adult lung fibroblasts were replicatively passaged until senescence (confirmed by RNA and senescence associated beta galactosidase staining). In a parallel experiment, low passage proliferating fibroblasts from the same donor were compared. Cells were plated into 96-well plates and treated with the indicated compound (6-point dose-response) and incubated for 96 hours. Cells were then fixed using 4% PFA, permeabilized using 0.25% triton x-100, and nuclear stained using a primary antibody for cleaved caspase-3, secondary fluorescence conjugated antibody, and DAPI. Cells were then imaged using a 4× objective on a Cytation5 microscope and cell counts were quantified using automated software (Biotek Gen5). Data shown are the EC50 values calculated for each compounds efficacy to induce apoptosis in senescence vs. proliferating lung fibroblasts, from the calculated dose-response curves, N=3 independent experiments."}, "[3]": {"test": "Stability in mouse plasma", "type": "in vitro ADME", "procedure": "The stability of F-4N in plasma was assessed (FIG. 27). Compounds were incubated with human or mouse plasma. The percent of F-4N recovered was analyzed by LC-MS. Warfarin was used as a control for stable compound, and propantheline was used as a control for an unstable compound. Analysis was performed by Cyprotex (Framingham, MA)."}, "[4]": {"tested_on": "sections of lung tissue from IPF patient transplant lungs", "test": "IPF patient-derived organotypic ex vivo culture", "type": "cell-based, human", "settings": "3 μM, 4 days ex vivo, N=3 patient samples", "procedure": "An IPF patient-derived organotypic ex vivo culture was used to determine efficacy of F-4N. Sections of lung tissue (about […]) were cut from IPF patient transplant lungs and cultured for 4 days ex vivo with DMSO (0.1%) or F-4N (3 μM). Lung tissue slices were collected, RNA was isolated, and qPCR analysis was performed (FIG. 31). Media was also collected for ELISA analysis for IL-6 (FIG. 31B). N=3 patient samples."}},
  "data": [
    {"smiles": "O=c1c(O)c(-c2ccc(OCc3ccncc3)cc2)oc2ccccc12", "note": "[F—4N]", "values": [
      {"measurement": "microsomal stability: half-life and clearance rate", "setting": "[1]", "value": "in line with many clinically approved orally administered drugs"},
      {"measurement": "Putative targets identified by kinome screening", "setting": "~400 kinases", "value": "STK17A (also known as DRAK1), STK17B (also known as DRAK2), and MYLK4, AURKB, FLT3, and KIT"},
      {"measurement": "recovery at 4 h, 5 μM", "setting": "in vitro", "value": 100, "unit": "%"},
      {"measurement": "Plasma bound", "setting": "in vitro; 4 h, 5 μM", "value": 99, "unit": "%"},
      {"measurement": "plasma protein binding (in words)", "setting": "in vitro; plasma", "value": "high"},
      {"measurement": "Plasma unbound", "setting": "in vitro; plasma, 4 h, 5 μM", "value": 0.94, "unit": "%"},
      {"measurement": "Proliferating fibroblast apoptosis EC50", "setting": "[2]", "value": "inactive"},
      {"measurement": "stability in plasma (percent recovered, LC-MS)", "setting": "[3]", "value": "stable"},
      {"measurement": "expression of fibrotic markers (qPCR)", "setting": "[4]", "value": "reduced expression"},
      {"measurement": "expression of mature alveolar epithelial cell markers (qPCR)", "setting": "[4]", "value": "enhanced expression"}
    ]}
  ]
}
